Data published in patent US20250297233A1, “GENETICALLY ENCODED SYSTEMS FOR GENERATING OXYGEN IN LIVING EUKARYOTIC CELLS” (The General Hospital Corporation, priority 2022, published 2025).
Where two headings read alike, the source gives them in different places.

How the values were obtained:
[1] = target: sodium iodide symporter (NIS) (Rattus norvegicus, UniProt Q63008); conditions: read-out: Km of NIS transport; Xenopus oocytes (Eskandari 1997); cited from earlier work
NdCld [2] = conditions: human digitonin-permeabilized HeLa cell extract expressing NdCld, initial rates of oxygen evolution
NdCld, sequence (as listed by the source): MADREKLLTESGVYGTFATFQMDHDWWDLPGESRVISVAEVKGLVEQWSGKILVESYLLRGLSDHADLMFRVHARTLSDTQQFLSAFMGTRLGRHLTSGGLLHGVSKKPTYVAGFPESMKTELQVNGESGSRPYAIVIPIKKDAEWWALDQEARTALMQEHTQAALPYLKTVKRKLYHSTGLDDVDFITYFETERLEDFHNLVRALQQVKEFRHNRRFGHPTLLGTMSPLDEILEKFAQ
Description: HeLa cells were pelleted at 800×g for 3 min, washed with PBS, pelleted again, and then resuspended in assay buffer (125 mM KCl, 2 mM K2HPO4, 1 mM MgCl2, 2 0 mM HEPES pH 7.2, 5 mM glutamate, 5 mM malate, and 0.01% digitonin) at a concentration of 5×10^6 cells/ml. Oxygen production was measured using a FireSting optical oxygen meter connected to a sensor vial. One ml of cell solution (5×10^6 cells) was used for each measurement. Measurements were performed under ambient air conditions with stirring of the cell solution. […] The initial rates were determined from the resulting oxygen traces using up to 20 seconds of the linear portion of the trace via the ICEKAT web server (Olp, 2020). The means of 3 replicate rates were plotted against the chlorite concentrations to estimate the KM.
We next characterized the activity of this protein in human cell extracts. […] Doses spanning 10 uM to 1 mM were used, as previous studies have shown that higher chlorite concentrations lead to inactivation of the enzyme (Hofbauer 2014). We monitored oxygen evolution using an optical probe in a well-stirred, air saturated cuvette.

NdCld [3] = conditions: purified bacterial expressed NdCld (Kostan 2010; Hofbauer 2014); cited from earlier work
yeast = conditions: read-out: dose required to achieve 50% growth inhibition; yeast (Kwolek-Mirek 2011); cited from earlier work
HeLa cells [4] = assay: Seahorse oxygen and oxygen consumption rate measurement in intact cells; assay type: cell-based, human; conditions: 1% ambient oxygen
NdCld [5] = conditions: NdCld in E. coli extracts (Maixner 2008); cited from earlier work
HeLa cells [6] = conditions: read-out: concentration giving 50% decrease in viability; HeLa cells (GFP), treated for 3 days, FIG. 3A
Description: Cell counts and viability were assessed after 3 days of growth using a Vi-Cell BLU Cell Viability Analyzer. Shown is the mean+/−s.d. of triplicate measurements.
HeLa cells were trypsinized, counted, and prepared at 10^5 cells/ml in normal growth media. […] Cells were seeded in 24-well plates, with triplicate wells for each condition. 500 ul of each 2× chlorite/media preparation was first added to the plate. 500 ul of cell suspension (5×10^4 cells) was then added to each well. The plate was gently mixed, and cells were grown for 3 days in a 37° C./5% CO2 incubator. After 3 days, cells were washed briefly with 500 ul of PBS, trypsinized with 250 ul TrypLE Express, and resuspended with 750 ul of normal growth media to 1 ml total volume. In wells containing a majority of visibly dead, floating cells, cells were resuspended by vigorously pipetting up and down rather than by trypsinization. 200 ul of each cell suspension was then quantified using a Vi-Cell BLU Cell Viability Analyzer (Beckman Coulter).

sodium iodide symporter (NIS), sequence (Q63008 whole entry): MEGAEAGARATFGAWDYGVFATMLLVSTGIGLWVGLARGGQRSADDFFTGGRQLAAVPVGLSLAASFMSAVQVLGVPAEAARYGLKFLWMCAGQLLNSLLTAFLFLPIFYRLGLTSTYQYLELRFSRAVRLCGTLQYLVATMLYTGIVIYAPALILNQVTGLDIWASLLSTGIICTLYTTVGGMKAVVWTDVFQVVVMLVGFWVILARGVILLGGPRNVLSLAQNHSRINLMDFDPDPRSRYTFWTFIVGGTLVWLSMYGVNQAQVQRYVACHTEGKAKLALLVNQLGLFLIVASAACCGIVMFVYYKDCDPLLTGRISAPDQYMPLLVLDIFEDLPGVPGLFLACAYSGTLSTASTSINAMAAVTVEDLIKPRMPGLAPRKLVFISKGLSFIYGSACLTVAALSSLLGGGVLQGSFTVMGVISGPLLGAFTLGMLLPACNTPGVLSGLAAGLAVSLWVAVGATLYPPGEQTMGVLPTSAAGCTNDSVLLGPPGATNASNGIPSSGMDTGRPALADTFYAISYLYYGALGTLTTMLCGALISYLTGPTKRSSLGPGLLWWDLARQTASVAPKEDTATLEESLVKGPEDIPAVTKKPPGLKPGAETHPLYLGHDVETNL

Compound | Km [1] | Vmax (NdCld [2]) | Km (NdCld [2]; read-out: Km for chlorite) | Km (NdCld [3]) | IC50 (yeast) | oxygen generation (decline in apparent OCR) (HeLa cells [4]; HeLa cells co-expressing NdCld and NIS, piericidin+antimycin, dose response beginning with 1 mM chlorite) | oxygen evolution in intact cells (HeLa cells [4]; HeLa cells expressing FLAG-NdCld+NIS (not mCherry), 500 uM or 1 mM chlorite) | Km (NdCld [5]) | IC50 (HeLa cells [6])
[O-][Cl+2]([O-])O [chlorate] | 277 µM |  |  |  |  |  |  |  | 
sodium chlorite |  | 0.37 umoles/second/100,000 cells | 560 µM | 58 to 69 µM | 4000 µM | robust oxygen production | observed oxygen evolution | 15800 µM | ~2000 µM
